The supplement of paper PMC10307832

Key:
Assay in all cases: relative viability (nuclei count vs DMSO), 5 days (fraction); higher = more cells survive
[1] = compound: CC[C@@H](C)CNCC(=O)N1CCC2=C([C@@H]1COC3=CC=CC(=C3)C)C=CS2 [RU-SKI 43] + CS(=O)(=O)CCNCc1ccc(-c2ccc3ncnc(Nc4ccc(OCc5cccc(F)c5)c(Cl)c4)c3c2)o1 [Lapatinib] (partner 2 µM)
In short: (§1)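 A single step with final 0.05% Triton X-100, 1% formaldehyde and 1 ug/ml Hoechst fixed the cells and stained nuclei 5 days after treatment. Lung cancer cell lines in 1536-well plates had been treated by pin tool the day after seeding with one drug alone or a fixed anchor-drug dose plus five library-drug doses (not always all listed) in √10 steps, and nuclei were counted on 4× images. Relative viability is the ratio of nuclei in treated wells to nuclei in vehicle wells, taken as the median of duplicate plates.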

[2] = compound: CC[C@@H](C)CNCC(=O)N1CCC2=C([C@@H]1COC3=CC=CC(=C3)C)C=CS2 [RU-SKI 43] + CS(=O)(=O)N1CCN(Cc2cc3nc(-c4cccc5[nH]ncc45)nc(N4CCOCC4)c3s2)CC1 [Pictilisib] (partner 1 µM)
In short: as §1

[3] = compound: Cn1cc(-c2cnc3ccc4ccc(CS(=O)(=O)NCc5ccccn5)cc4c(=O)c3c2)cn1 [MK-8033] + CS(=O)(=O)N1CCN(Cc2cc3nc(-c4cccc5[nH]ncc45)nc(N4CCOCC4)c3s2)CC1 [Pictilisib] (partner 1 µM)
In short: as §1

[4] = compound: Cn1cc(-c2cnc3ccc4ccc(CS(=O)(=O)NCc5ccccn5)cc4c(=O)c3c2)cn1 [MK-8033] + Nc1ncn([C@H]2C[C@H](O)[C@@H](CO)O2)c(=O)n1 [Decitabine] (partner 2 µM)
In short: as §1

| Cell Line | relative viability ([1]; first compound 0.1 µM) | relative viability ([1]; first compound 0.3162 µM) | relative viability ([1]; first compound 1 µM) | relative viability ([1]; first compound 3.162 µM) | relative viability ([1]; first compound 10 µM) | relative viability ([2]; first compound 0.1 µM) | relative viability ([2]; first compound 0.3162 µM) | relative viability ([2]; first compound 1 µM) | relative viability ([2]; first compound 3.162 µM) | relative viability ([2]; first compound 10 µM) | relative viability ([3]; first compound 0.02 µM) | relative viability ([3]; first compound 0.06325 µM) | relative viability ([3]; first compound 0.2 µM) | relative viability ([3]; first compound 0.6325 µM) | relative viability ([3]; first compound 2 µM) | relative viability ([4]; first compound 0.02 µM) | relative viability ([4]; first compound 0.06325 µM) | relative viability ([4]; first compound 0.2 µM) | relative viability ([4]; first compound 0.6325 µM) | relative viability ([4]; first compound 2 µM) |
| --- | --- | --- | --- | --- | --- | --- | --- | --- | --- | --- | --- | --- | --- | --- | --- | --- | --- | --- | --- | --- |
| 201T | 1.1 | 0.997 | 1.06 | 1.05 | 1.01 | 0.71 | 0.544 | 0.737 | 0.662 | 0.67 | 0.684 | 0.579 | 0.657 | 0.654 | 0.697 | 0.9 | 0.868 | 0.851 | 0.873 | 0.876 |
| A549 | 0.95 | 1.13 | 1.09 | 0.908 | 0.759 | 0.511 | 0.742 | 0.594 | 0.439 | 0.384 | 0.519 | 0.491 | 0.387 | 0.47 | 0.409 | 0.263 | 0.319 | 0.474 | 0.156 | 0.305 |
| A-427 | 1.01 | 1.22 | 1.1 |  | 1 | 0.83 | 0.66 | 0.878 |  | 0.675 | 0.676 | 0.7 | 0.677 | 0.734 | 0.644 | 0.579 | 0.523 | 0.585 | 0.583 | 0.569 |
| ABC-1 | 1.23 | 1.42 | 1.12 | 1.18 | 1.24 | 0.676 | 0.842 | 0.753 | 0.701 | 0.772 | 0.969 | 0.564 | 0.689 | 0.674 | 0.699 | 1.1 | 0.976 | 1.07 | 1.01 | 1.26 |
| BEN | 0.691 | 0.607 | 0.961 | 0.589 | 0.684 | 0.642 | 0.546 | 0.791 | 0.528 | 0.584 | 0.583 | 0.454 | 0.499 | 0.594 | 0.541 | 0.805 | 0.702 | 0.655 | 0.71 | 0.761 |
| CAL-12T | 0.661 | 0.759 | 0.551 | 0.562 | 0.619 | 0.772 | 0.334 | 0.624 | 0.397 | 0.461 | 0.515 | 0.323 | 0.339 | 0.436 | 0.388 |  |  |  |  |  |
| COR-L23 | 0.982 | 0.845 | 1.3 | 1.04 | 0.996 | 0.754 | 0.756 | 0.897 | 0.986 | 0.738 | 0.8 | 0.731 | 0.697 | 0.876 | 0.823 | 0.447 | 0.361 | 0.465 | 0.455 | 0.443 |
| COR-L 105 | 0.411 | 0.344 | 0.379 | 0.376 | 0.351 | 0.436 | 0.361 | 0.377 | 0.379 | 0.364 | 0.413 | 0.357 | 0.366 | 0.424 | 0.403 | 0.659 | 0.556 | 0.619 | 0.689 | 0.691 |
| Calu-6 | 1.28 | 1.43 | 1.08 | 1.1 | 0.982 | 0.918 | 1.14 | 0.977 | 0.912 | 0.722 | 0.947 | 0.766 | 0.899 | 0.85 | 0.975 |  |  |  |  |  |
| ChaGo-K-1 |  |  |  |  |  | 1.07 | 0.75 | 1.12 | 0.435 | 0.495 | 0.717 | 0.652 | 0.654 | 0.713 | 0.615 | 0.525 | 0.463 | 0.56 | 0.385 | 0.511 |
| EBC-1 | 0.186 | 0.189 | 0.215 | 0.197 | 0.181 | 0.345 | 0.283 | 0.429 | 0.316 | 0.196 | 0.354 | 0.314 | 0.222 | 0.195 | 0.144 |  |  |  |  |  |
| EKVX | 0.185 | 0.175 | 0.202 | 0.208 | 0.187 | 0.395 | 0.422 | 0.392 | 0.482 | 0.386 | 0.433 | 0.409 | 0.442 | 0.438 | 0.476 | 0.34 | 0.285 | 0.388 | 0.343 | 0.399 |
| EMC-BAC-2 | 0.924 | 0.961 | 0.933 | 0.983 | 0.916 | 0.516 | 0.518 | 0.561 | 0.565 | 0.511 | 0.59 | 0.412 | 0.478 | 0.502 | 0.483 | 0.941 | 0.762 | 0.967 | 0.982 | 0.938 |
| EPLC-272H | 0.913 | 0.831 | 1.25 |  | 0.833 | 0.316 | 0.315 | 0.404 |  | 0.291 | 0.3 |  | 0.298 | 0.303 | 0.294 | 0.338 | 0.373 | 0.325 | 0.367 | 0.37 |
| H3255 | 0.249 | 0.193 | 0.174 | 0.192 | 0.213 | 0.435 | 0.412 | 0.512 | 0.494 | 0.455 | 0.558 | 0.299 | 0.48 | 0.577 | 0.441 | 0.486 |  | 0.595 | 0.642 | 0.639 |
| HARA | 0.816 | 0.832 | 0.771 | 0.705 | 0.76 | 0.524 | 0.512 | 0.435 | 0.458 | 0.318 | 0.445 | 0.395 | 0.335 | 0.382 | 0.419 | 0.651 | 0.508 | 0.463 | 0.559 | 0.605 |
| HCC-15 | 0.906 | 1.16 | 1.04 | 0.787 | 0.717 | 0.886 | 0.887 | 0.872 | 0.721 | 0.679 | 0.829 | 0.632 | 0.698 | 0.767 | 0.754 | 0.62 | 0.595 | 0.548 | 0.57 | 0.653 |
